Structures can show the parent of a compound that is named as a salt.
Tests used:
[1] = system: Human rhinovirus type 14 (HRV14, major group); format: cell-based
[2] = system: Human respiratory syncytial virus, Long strain (RSV); format: cell-based
[3] = system: Human herpesvirus type 1 (HSV1); format: cell-based
[4] = system: Human coxsackievirus type 9 (CA9); format: cell-based
[5] = system: BGM, HEp-2 and HeLa cells
[6] = in vivo; cited from earlier work
[7] = system: herpesviruses and influenza viruses; details: cited from earlier work

For `Cc1cc(C(C)(C)C)c(O)c(C)c1CC1=NCCN1` [OMZ, Oxymetazoline hydrochloride], the reduction in infectivity [1] was 50-60%.
With `NC(=O)c1ncn([C@@H]2O[C@H](CO)[C@@H](O)[C@H]2O)n1` [ribavirin, Ribavirin] the reduction in infectivity [2] was 50-60%.
For aconitine, the percentage plaque inhibition [3] was 3.17/11.22%, the “plaque inhibition of the individual substances” value [3] was “approximately 8%” and the percentage plaque inhibition [4] was 8.40/10.69%. The percentage plaque inhibition [2] was 9.01/16.56%, the percentage plaque inhibition [1] was −1.14/2.84% and the “non-cell-toxic concentration (start of dilution series)” value [5] was 50 µg/mL. The lethal dose [6] was “approximately 5 mg”.
In the case of `CN1[C@@H]2CC[C@H]1CC(OC(=O)C(CO)c1ccccc1)C2.CN1[C@@H]2CC[C@H]1CC(OC(=O)C(CO)c1ccccc1)C2.O=S(=O)(O)O` (stereo partly shown) [Atropine sulphate, atropine sulphate], the percentage plaque inhibition [3] is reported as 19.52/41.90%, the “plaque inhibition of the individual substances” value [3] is reported as “approximately 35%” and the percentage plaque inhibition [4] is reported as 7.63/12.85%. The percentage plaque inhibition [2] was 7.74/12.36% and the percentage plaque inhibition [1] was 11.30/14.12%.
For `Nc1nc2c(ncn2COCCO)c(=O)[nH]1` [aciclovir, Aciclovir], the reduction in infectivity [3] was 50-60%.
In the case of `CN1[C@@H]2CC[C@H]1C[C@@H](OC(=O)C(CO)c1ccccc1)C2` (stereo partly shown) [atropine], the “concentration at which the maximum antiviral effect is achieved” value [7] is given as 2 mM.

Source: US9913861B2 (priority 2013, dated 2018)
